This note sets out measurements from PubChem BioAssay (NCI).

Holding throughout (test): NCI tumour cell line growth inhibition, 48 h
Test [1] relates to M14 melanoma.
For test [2], the system named is OVCAR-4 ovarian.
For test [3], the system named is CCRF-CEM leukemia.
The test system of test [4] is MDA-N.
Test [5] deals with OVCAR-3 ovarian.
The test system of test [6] is NCI-H460 lung.
Test [7] has as its system BT-549 breast.
Test [8] concerns HCT-116 colon.
In test [9] the test system is A498 renal.
The test system of test [10] is SF-539 CNS.

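These data come from cells grown in 96-well plates and exposed to compound for 48 hours at five concentrations. TGI is the concentration that stops growth completely.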

For the molecule `Cc1ccc(/C=C2\CN(C)CC3C(c4ccc(C)cc4)=C(C#N)C(=O)NC23)cc1` (centres undefined), the TGI in test [1], in [2], in [3], in test [4], in [5] and in [6] was greater than 50 µM each time. In addition, the TGI in [7], in test [8] and in test [9] was greater than 50 µM each time.

As for `O/N=c1/ccn(O)c2ccccc12`, the TGI in test [1] is 6.87 µM; in [10], 2.41 µM; in test [2] it was 4.43 µM; in test [3] it was 3.34 µM; in test [4], 17.5 µM; in test [5], 6.59 µM. Besides, the TGI was determined as 3.67 µM in test [6], 3.13 µM in test [7], 11.3 µM in test [8] and 1.75 µM in test [9].

For `ClC(Cl)(Cl)C1CCOC1n1nc2ccccc2n1` (centres undefined), the TGI in [1], in test [10], in test [2], in test [3], in [4] and in test [5] was greater than 100 µM each time. In addition, the TGI in test [6], in [7], in test [8] and in test [9] was greater than 100 µM throughout.

Turning to `COc1c(Cl)ccc(Cl)c1C(=O)NNC(=O)c1c(Cl)c(Cl)c(Cl)c(Cl)c1-c1nc2ccc(C(=O)c3ccccc3)cc2[nH]1`, the TGI in [1], in [10], in test [2], in [3], in test [4] and in test [5] was greater than 100 µM each time. The TGI in [7], in [8] and in test [9] was greater than 100 µM each time.

`Cc1c2c(c(C)n1-c1ccccc1)C(=O)N(CCSC(=N)N)C2=O`: the TGI in test [1], in [10], in [2], in test [3], in test [4] and in [5] was greater than 100 µM each time. The TGI in test [6], in [7], in test [8] and in test [9] was greater than 100 µM each time.

Regarding `CC(=O)OCCC1c2ccccc2-n2nc(-c3ccccc3)c(O)c21` (centres undefined), the TGI in [1] was 28.6 µM; in test [10] it was 44.7 µM; in test [2], 40.5 µM; in [3], 50 µM; in test [4], 33.2 µM; in [5], 49.3 µM. Also, the TGI in test [6] is 28.3 µM; in [7], 33.3 µM; in test [8] it was 30.4 µM; in test [9], 36.4 µM.

As for `N#C/C(=C1\N=C(c2ccccc2O)Oc2ccccc21)c1ccc([N+](=O)[O-])cc1`, the TGI in test [1], in test [10], in [2], in [3], in test [4] and in test [5] was greater than 100 µM in each case. Further, the TGI in test [6], in test [7], in test [8] and in [9] was greater than 100 µM in each case.

As to `O=C(NCCN1C(=O)CN=C(c2ccc(Cl)cc2)c2cc(Cl)ccc21)OCc1ccccc1`, the TGI is 34.9 µM in [1]; 38.2 µM in [10]; 22.6 µM in [2]; 63.1 µM in [3]; 31.9 µM in [4]; 26 µM in test [5]. Moreover, the TGI in test [6] amounted to 32.4 µM; in [7], 32.4 µM; in test [8] it was 24.8 µM; in test [9], 24.5 µM.

Regarding `O=[N+]([O-])c1ccc(Cl)cc1-n1nc(-c2ccccc2)cc1-c1ccccc1`, the TGI in test [1], in test [10], in test [2], in [3], in [4] and in test [5] was greater than 100 µM in each case. The TGI in test [6], in test [7], in [8] and in [9] was greater than 100 µM each time.

For `N#Cc1ncn(-c2ccccc2)c1N`, the TGI in [1], in test [10], in [2], in test [3], in test [4] and in [5] was greater than 100 µM throughout. Further, the TGI in test [6], in [7], in [8] and in test [9] was greater than 100 µM throughout.

Turning to `CC[C@@H](CCCC[C@@H]1CC[C@H]2CC(=O)C[C@@H]12)OC`, the TGI in test [1], in test [10], in test [2], in test [3], in test [4] and in [5] was greater than 100 µM each time. The TGI in [6], in test [7], in [8] and in test [9] was greater than 100 µM in each case.

With `CC[C@@H]1CN2CCC1C[C@@H]2C(O)c1ccnc2ccc(OCCN3CCN(CCOc4ccc5nccc(C(O)[C@@H]6C[C@@H]7CCN6C[C@@H]7CC)c5c4)CC3)cc12` (some centres undefined), the TGI in [1] was 26.2 µM; in [10], 36.7 µM; in test [2], 40.8 µM; in [3], 15.7 µM; in test [4], 27.1 µM; in test [5], 36 µM. The TGI in [6] worked out at 38.4 µM; in [7], 40.9 µM; in [8], 28.3 µM; in [9], 37 µM.

In the case of `CN(C)CCN1C(=O)CC[C@@]2(C)C1=CC[C@@H]1[C@@H]2CC[C@@]2(C)[C@H]1CC[C@]2(C)O`, the TGI in [1], in test [10], in test [2], in [3], in [4] and in test [5] was greater than 100 µM each time. Further, the TGI in test [6], in test [7], in test [8] and in test [9] was greater than 100 µM each time.

As to `Cc1cn(CC2=NCCN2)c(=O)[nH]c1=O`, the TGI in test [1], in test [2], in test [3], in test [4], in [6] and in test [7] was greater than 100 µM each time. Also, the TGI in test [8] and in test [9] was greater than 100 µM in each case.

Regarding `CC1=C2C(=O)O[C@@H](c3ccoc3)[C@]2(C)CCC1=O`, the TGI in test [1], in test [10], in test [3], in [4], in test [5] and in test [6] was greater than 100 µM each time. For the same molecule, the TGI in [7], in [8] and in test [9] was greater than 100 µM in each case.

`COc1cc([C@@H]2c3cc4c(cc3[C@H](OC3OC5COC(C(C)C)OC5C(O)C3O)C3COC(=O)[C@@H]32)OCO4)cc(OC)c1O` (some centres undefined): the TGI is 24.3 µM in [1]; 8.18 µM in [10]; 37.6 µM in test [2]; greater than 100 µM in [3]; 6.48 µM in [4]; 24.4 µM in test [5]. Further, the TGI stood at 10.2 µM in [6], 15.9 µM in [7], 13.5 µM in [8] and 22.8 µM in test [9].

`CCC1(OC(=O)CN2CCN(CCO)CC2)C(=O)OCc2c1cc1n(c2=O)Cc2cc3ccccc3nc2-1` (centres undefined): the TGI came to 1.92 µM in test [1]; 1.73 µM in test [10]; 17 µM in test [2]; 0.451 µM in [3]; 13.1 µM in [4]; 3.81 µM in test [5]. For the same molecule, the TGI in test [6] was 0.971 µM; in [7] it was 20.4 µM; in [8] it was 3.35 µM; in test [9] it was 1.78 µM.

For `Cc1cc(S(N)(=O)=O)c(SCc2nc(N)nc(N(C)C)n2)cc1Cl`, the TGI in [1], in test [10], in [2], in test [3], in test [4] and in test [5] was greater than 10 µM in each case. The TGI in test [6], in test [7], in test [8] and in test [9] was greater than 10 µM in each case.

In the case of `COc1ccccc1/C=C1\Sc2scc(-c3cccc([N+](=O)[O-])c3)[n+]2C1=O`, the TGI in test [1] stood at 18.6 µM; in test [10], 3.56 µM; in [2], 43.2 µM; in test [4] it was 12.3 µM; in test [5] it was 26.7 µM; in test [6] it was 26.9 µM. The TGI in [7] worked out at 12.6 µM; in [8], 16.7 µM; in [9], 48.9 µM.

Regarding `C[C@H](CCC1=NCCN1)[C@H]1CC[C@H]2[C@@H]3[C@H](O)C[C@@H]4C[C@H](O)CC[C@]4(C)[C@H]3CC[C@]12C`, the TGI in test [1] amounted to 28.6 µM; in test [10] it was 25.5 µM; in [2], 28.1 µM; in [3], 32.9 µM; in [4] it was 32.7 µM; in [5] it was 26.6 µM. In addition, the TGI in test [6] is 24.3 µM; in test [7], 24.7 µM; in [8] it was 26.4 µM; in test [9] it was 26.1 µM.

Turning to `CN(C)CCOc1ccc(I)cc1Cc1ccccc1`, the TGI in test [1] came out at 6 µM; in [10], 27.8 µM; in [2], 24.6 µM; in test [3], 18.5 µM; in [4] it was 17.4 µM; in test [5], 26.7 µM. In addition, the TGI was found to be 26.8 µM in test [6], 28.6 µM in [7], 22.4 µM in test [8] and 27.1 µM in test [9].

Take `CCCCCCCCCCCCCCCC(=O)ON1C(=S)NC(C)(c2ccccc2)C1=S` (centres undefined): the TGI was 80.1 µM in test [1]; greater than 100 µM in test [10]; greater than 100 µM in test [2]; greater than 100 µM in test [3]; greater than 100 µM in test [4]; greater than 100 µM in test [5]. Moreover, the TGI in test [6], in test [7], in test [8] and in test [9] was greater than 100 µM in each case.

For `O=[N+]([O-])c1cccc(N=C2c3ccccc3CN2c2cccc([N+](=O)[O-])c2)c1`, the TGI in test [1], in test [10], in test [2], in test [4], in test [5] and in test [6] was greater than 100 µM in each case. In addition, the TGI in [7], in [8] and in test [9] was greater than 100 µM throughout.

`O=C(O)c1cccc(S(=O)(=O)NN2C(=O)CSC2c2ccccc2)c1` (centres undefined): the TGI in [1], in test [10], in test [3], in test [4], in test [5] and in [6] was greater than 100 µM each time. For the same molecule, the TGI in test [7], in test [8] and in test [9] was greater than 100 µM each time.

Take `Cc1cc(C)c(S(=O)(=O)N[C@@H](/C=C(\Br)CO)C(C)C)c(C)c1`: the TGI was 91.3 µM in test [1]; greater than 100 µM in test [10]; 90.1 µM in test [3]; 69.8 µM in test [4]; 51.8 µM in [5]; 85.4 µM in test [6]. Moreover, the TGI was 85.2 µM in test [7], greater than 100 µM in test [8] and 68 µM in [9].

For `CC(=O)Oc1ccc(N2C(=O)C3c4[nH]c5ccccc5c4C4CCC(C(C)(C)C)CC4C3C2=O)cc1` (centres undefined), the TGI in [1] came out at 13.2 µM; in test [10], 18.3 µM; in test [3] it was 13.2 µM; in [4], 14.1 µM; in test [5] it was 7.07 µM; in test [6], 5.83 µM. In addition, the TGI came out at 14.9 µM in test [7], 4.93 µM in [8] and 14.7 µM in [9].

For the molecule `CC(CC(=O)CO[C@H]1[C@H](O)[C@@H](O)[C@@H](O)[C@@H]2NC(=O)c3c(cc4c(c3O)OCO4)[C@H]21)OC1OC(CO)C(O)C(O)C1O` (some centres undefined), the TGI in [1] was determined as 2.17 µM; in test [10], 1.86 µM; in test [2], 1.27 µM; in test [3], 0.582 µM; in test [4] it was 3.91 µM; in test [5], 2.65 µM. The TGI in test [7] turned out to be 3.76 µM; in test [8], 1.67 µM; in [9] it was 4.39 µM.
